We go through 28 compounds from patent US6579882B2, “Cell adhesion-inhibiting antiinflammatory compounds” (Abbott Laboratories, priority 1998, dated 2003).

One series concerns E-Selectin. In words: CAM ELISA: E-selectin expression on TNF-stimulated HUVECs. The format is cell-based. To be noted: 1 μM compound, primary human umbilical vein endothelial cells, compound 24 hours, then TNF 5 ng/mL 6 hours; for inhibition at 1 µM: Homo sapiens, Endothelial cell. How it is done: (§1) Pooled primary human umbilical vein endothelial cells (HtVEC's) (Clonetics) between passages 3 and 7 were plated in 96-well plates (Costar), 100 μL/well, 5×10^4 cells/mL in Clonetics EBM/2% FBS/EGF/Bovine brain extract/gentamicin in the absence of hydrocortisone. The following day, compounds of the invention were added in 10 μL/well medium, and the plates were incubated at 37° C. 24 hours after compound addition, TNF (Gibco/BRL) in 10 μL/well medium was added to a final concentration of 5 ng/mL, and the cells were incubated an additional 6 hours at 37° C. Then media was removed, and the plates were washed once with D-PBS (Gibco/BRL) and treated with primary antibodies (Becton Dickinson, City), 100 μL/well in D-PBS/2% BSA (Sigma)/0.01% azide. Primary antibodies at an initial concentration of 1 mg/mL were used at the following dilutions: anti-ELAM-1, 1:2000, anti-ICAM-1, 1:2000 and anti-VACM-1, 1:3000. Plates were stored overnight at 4° C., washed 3 times with D-PBS, and treated with secondary antibody (Jackson Labs), 100 μL/well 1:8000 dilution HRP-conjugated donkey anti-mouse IgG(H+L) in D-PBS/2%BSA. Plates were incubated a minimum of 1 hour at room temperature, washed 3 times with D-PBS and treated with 100 μL of orhto-phenylene diamine-2 HCl reagent per well. Plates were developed approximately 15 minutes and neutralized with 100 μL/well 1N sulfuric acid. Absorbance was read at 490 nm.

The next series relates to VCAM-1. Description: CAM ELISA: VCAM-1 expression on TNF-stimulated HUVECs. The format is cell-based. To be noted: 1 μM compound, primary human umbilical vein endothelial cells, compound 24 hours, then TNF 5 ng/mL 6 hours; for inhibition at 1 µM: Homo sapiens, Endothelial cell. On the procedure:
as §1

The subject of a further series is ICAM-1. In words: CAM ELISA: ICAM-1 expression on TNF-stimulated HUVECs. The format is cell-based. To be noted: 1 μM compound, primary human umbilical vein endothelial cells, compound 24 hours, then TNF 5 ng/mL 6 hours; for inhibition at 1 µM: Homo sapiens, Endothelial cell. How it is done:
as §1

As for `OCc1cc2c(Oc3ccc(Cl)cc3)cncc2s1` [Example 90, 4-(4-chlorophenoxy)thieno[2,3-c]pyridine-2-methanol], the melting point lay in the range of 90 to 91 °C. This compound had an inhibition at 1 µM in the series on E-Selectin of 47%. The same compound registered an inhibition at 1 µM with VCAM-1 of 27%. In the series on ICAM-1, this compound gave an inhibition at 1 µM of 51%.
Compound `Cc1nc(-c2cc3c(Oc4ccc(Cl)cc4)cncc3s2)no1` [Example 279, 4-(4-Chlorophenoxy)-2-(5-methyl-1,2,4-oxadiazol-3-yl)thieno[2,3-c]pyridine] returned a melting point of 120 to 121 °C. Moreover, the inhibition at 1 µM in the series with E-Selectin was found to be 30%. This compound also showed an inhibition at 1 µM with VCAM-1 of 24%. Moreover, testing at 1 µM with ICAM-1 gave an inhibition of 40%.
With `Cc1ccc(Sc2ncnc3c(C)c(C(N)=O)sc23)cc1` [Example 16, 7-methyl-4-[(4-methylphenyl)thio]thieno[3,2-d]pyrimidine-6-carboxamide], the melting point is 243 to 246 °C. The compound also returned an inhibition at 1 µM in the series on E-Selectin of 35%. This compound had an inhibition at 1 µM in the series with VCAM-1 of 19%. This compound also yielded an inhibition at 1 µM in the series on ICAM-1 of 32%.
For `Nc1csc(-c2cc3c(Oc4ccc(Cl)cc4)cncc3s2)n1` [Example 295, 2-[4-(4-Chlorophenoxy)thieno[2,3-c]pyridin-2-yl]-1,3-thiazol-4-amine], the melting point is 168 to 170 °C (dec.). In the series with E-Selectin, this compound had an inhibition at 1 µM of 59%. In addition, the inhibition at 1 µM in the series with VCAM-1 came to 44%. Moreover, the inhibition at 1 µM in the series with ICAM-1 came out at 56%.
As for `CCOCCOCCOCC1(c2ccc(Oc3cncc4sc(C(=O)NC)cc34)cc2)CC1` [Example 226], the “CAM ELISA % Inhibition at 1 μM E-Selectin” value in the series on E-Selectin worked out at 77%. Further, the “CAM ELISA % Inhibition at 1 μM VCAM-1” value with VCAM-1 is reported as 56%. Besides, in the series on ICAM-1, the “CAM ELISA % Inhibition at 1 μM ICAM-1” value is 74%.
On to `CNC(=O)c1cc2c(Oc3ccc(-c4ccccc4)cc3)cncc2s1` [Example 223], for which, in the series with E-Selectin, the “CAM ELISA % Inhibition at 1 μM E-Selectin” value worked out at 34%. Besides, the “CAM ELISA % Inhibition at 1 μM VCAM-1” value in the series on VCAM-1 turned out to be 36%. In the series on ICAM-1, the “CAM ELISA % Inhibition at 1 μM ICAM-1” value is reported as 36%.
On to `CNC(=O)c1cc2c(Oc3ccc(-c4cccs4)cc3)cncc2s1` [Example 222, N-Methyl-4-[4-(2-thienyl)phenoxy]thieno[2,3-c]pyridine-2-carboxamide], for which the inhibition at 1 µM in the series with E-Selectin turned out to be 40%; with VCAM-1, 44%; with ICAM-1, 42%.
Taken in the same sequence, the figures for `NS(=O)(=O)c1cc2c(Oc3ccc(Cl)cc3)cncc2s1` [Example 120, 4-(4-Chlorophenoxy)thieno[2,3-c]pyridine-2-sulfonamide] were 72%, 49% and 72%.
With `CNC(=O)c1cc2c(Oc3ccc(C(F)(F)F)cc3)cncc2s1` [Example 183, N-Methyl-4-[4-(trifluoromethyl)phenoxy]thieno[2,3-c]pyridine-2-carboxamide], the inhibition at 1 µM stood at 63% with E-Selectin, 48% in the series with VCAM-1 and 69% in the series on ICAM-1.
Taken in the same sequence, the figures for `CN(C)C(=O)c1cc2c(Oc3ccc(Cl)cc3)cncc2s1` [Example 104, 4-(4-chlorophenoxy)-N,N-dimethylthieno[2,3-c]pyridine-2-carboxamide] were 78%, 53% and 72%.
With `O=C(NCCO)c1cc2c(Oc3ccc(C(F)(F)F)cc3)cnc(Cl)c2s1` [Example 320], the “CAM ELISA % Inhibition at 1 μM E-Selectin” value with E-Selectin is 64%. Moreover, the “CAM ELISA % Inhibition at 1 μM VCAM-1” value with VCAM-1 worked out at 55%. Also, the “CAM ELISA % Inhibition at 1 μM ICAM-1” value with ICAM-1 worked out at 67%.
With `Cc1nnc(-c2cc3c(Oc4ccc(C(F)(F)F)cc4)cncc3s2)o1` [Example 290, 2-(5-Methyl-1,3,4-oxadiazol-2-yl)-4-[4-(trifluoromethyl)phenoxy]thieno[2,3-c]pyridine], the inhibition at 1 µM in the series with E-Selectin was determined as 42%; in the series on VCAM-1, 48%; with ICAM-1, 53%.
On to `CNC(=O)c1sc2cncc(Oc3ccc(Cl)cc3)c2c1C` [Example 303, 4-(4-Chlorophenoxy)-N, 3-dimethylthieno[2,3-c]pyridine-2-carboxamide], for which the inhibition at 1 µM worked out at 65% with E-Selectin, 33% with VCAM-1 and 66% in the series with ICAM-1.
With `O=C(Nc1cc2c(Oc3ccc(Cl)cc3)cncc2s1)OC1CCOC1` (stereo not shown) [Example 89, N-(4-(4-chlorophenoxy)thieno[2,3-c]pyridin-2-yl)-O-(3-tetrahydrofuranyl)carbamate], the “CAM ELISA % Inhibition at 1 μM E-Selectin” value in the series with E-Selectin amounted to 62%. Moreover, the “CAM ELISA % Inhibition at 1 μM VCAM-1” value with VCAM-1 is on record as 50%. Further, the “CAM ELISA % Inhibition at 1 μM ICAM-1” value in the series with ICAM-1 came to 64%.
In the case of `NC(=O)c1cc2c(Oc3ccc(Cl)cc3)cnc(Cl)c2s1` [Example 311, 7-Chloro-4-(4-chlorophenoxy)thieno[2,3-c]pyridine-2-carboxamide], the inhibition at 1 µM with E-Selectin turned out to be 72%; in the series with VCAM-1, 36%; in the series with ICAM-1, 77%.
As for `CNC(=O)c1cc2c(Oc3ccc(-c4cncn4C)cc3)cncc2s1` [Example 224, N-Methyl-4-[4-(1-methyl-1H-imidazol-5-yl)phenoxy]thieno[2,3-c]pyridine-2-carboxamide], the figures for the inhibition at 1 µM with E-Selectin, with VCAM-1 and in the series on ICAM-1 were 61%, 41% and 55%, respectively.
With `OCC(O)c1cc2c(Oc3ccc(Cl)cc3)cncc2s1` (stereo not shown) [Example 254, 1-[4-(4-Chlorophenoxy)thieno[2,3-c]pyridin-2-yl]-1,2-ethanediol], the inhibition at 1 µM with E-Selectin stood at 24%; in the series on VCAM-1, 24%; with ICAM-1, 28%.
Consider `Clc1ccc(Oc2cncc3sc(-c4ncon4)cc23)cc1` [Example 287, 4-(4-Chlorophenoxy)-2-(1,2,4-oxadiazol-3-yl)thieno[2,3-c]pyridine], for which the inhibition at 1 µM came out at 49% in the series with E-Selectin, 27% in the series with VCAM-1 and 49% with ICAM-1.
`Cc1occc1Sc1cncc2sc(C(N)=O)cc12` [Example 53, 4-[(2-methyl-3-fiuranyl)thio]thieno[2,3-c]piridine-2-carboxamide]: the “CAM ELISA % Inhibition at 1 μM E-Selectin” value in the series on E-Selectin is given as 70%. The “CAM ELISA % Inhibition at 1 μM VCAM-1” value in the series on VCAM-1 stood at 48%. In the series with ICAM-1, the “CAM ELISA % Inhibition at 1 μM ICAM-1” value stood at 67%.
For the compound `Nc1nnc(-c2cc3c(Oc4ccc(Cl)cc4)cncc3s2)o1` [Example 275, 5-[4-(4-Chlorophenoxy)thieno[2,3-c]pyridin-2-yl]-1,3,4-oxadiazol-2-amine], the inhibition at 1 µM in the series with E-Selectin came out at 73%; in the series on VCAM-1 it was 64%; in the series on ICAM-1, 72%.
For `NC(=O)c1cc2c(Oc3ccc(Cl)cc3)c(Cl)ncc2s1` [Example 340, 5-Chloro-4-(4-chlorophenoxy)thieno[2,3-c]pyridine-2-carboxamide], the values for the inhibition at 1 µM with E-Selectin, with VCAM-1 and with ICAM-1 were 18%, 20% and 33%, respectively.
For the compound `CSc1nnc(-c2cc3c(Oc4ccc(Cl)cc4)cncc3s2)o1` [Example 281], the “CAM ELISA % Inhibition at 1 μM E-Selectin” value with E-Selectin is reported as 18%. For the same compound, the “CAM ELISA % Inhibition at 1 μM VCAM-1” value with VCAM-1 was 20%. Besides, the “CAM ELISA % Inhibition at 1 μM ICAM-1” value with ICAM-1 is given as 25%.
On to `C=C(c1ccccc1)c1cncc2sc(C(N)=O)cc12` [Example 102, 4-(1-phenylethenpl)thieno[2,3-c]pyridine-2-carboxamide], for which the “CAM ELISA % Inhibition at 1 μM E-Selectin” value with E-Selectin is 78%. The “CAM ELISA % Inhibition at 1 μM VCAM-1” value with VCAM-1 came to 53%. Further, in the series on ICAM-1, the “CAM ELISA % Inhibition at 1 μM ICAM-1” value was 68%.
Turning to `CNC(=O)c1cc2c(Oc3ccc(C(F)(F)CO)cc3)cncc2s1` [Example 229], the “CAM ELISA % Inhibition at 1 μM E-Selectin” value with E-Selectin amounted to 54%. The “CAM ELISA % Inhibition at 1 μM VCAM-1” value with VCAM-1 is on record as 46%. The “CAM ELISA % Inhibition at 1 μM ICAM-1” value with ICAM-1 was found to be 55%.
In the case of `Clc1ccc(Oc2cncc3sc(-c4nnn[nH]4)cc23)cc1` [Example 282A, 4-(4-Chlorophenoxy)-2-(1,2,3,4-tetrazol-5-yl)thieno[2,3-c]pyridine], the figures for the inhibition at 1 µM in the series with E-Selectin, with VCAM-1 and in the series on ICAM-1 were 8%, 5% and 15%, respectively.
For the compound `NC(=O)c1cc2c(-c3ccc(C(F)(F)F)cc3)cncc2s1` [Example 95, 4-[4-(trifluoromethyl)phenyl]thieno[2,3-c]pyridine-2-carboxamide], the inhibition at 1 µM is 85% in the series with E-Selectin, 61% in the series with VCAM-1 and 71% with ICAM-1.
Taken in the same sequence, the figures for `CNC(=O)c1cc2c(Oc3ccc(N4CCOCC4)cc3)cncc2s1` [Example 190C, N-Methyl-4-[4-(4-morpholinyl)phenoxy]thieno[2,3-c]pyridine-2-carboxamide] were 70%, 37% and 65%.
On the same counts, the results for `CCOCCOCCOCC(F)(F)c1ccc(Oc2cncc3sc(C(=O)NC)cc23)cc1` [Example 230, 4-(4-[2-[2-(2-Ethoxyethoxy)ethoxy]-1,1-difluoroethyl]phenoxy)-N-methylthieno[2,3-c]pyridine-2-carboxamide] are 56%, 45% and 53%.
